Source: patent US7649020B2, “Modafinil polymorphic forms” (Cephalon France, priority 2002, dated 2010)
Like-named read-outs stand apart in the source and are kept apart here.

Key:
[1] = Comparative bioavailability study in dogs, plasma levels of modafinil after a single oral dose; type: in vivo, dog
Method: A comparative bioavailability study was carried out in dogs to determine the pharmacokinetic profile of the new polymorphs form IV and form V of modafinil. The study was aimed to compare plasma levels of polymorphs form IV and form V versus the reference form I. Six male beagle dogs were randomly assigned to three groups according to a (3×3) Latin-square design. Each group was administered a single oral 30 mg/kg body weight dose of either form IV or form V or the reference form I and two successive administrations were separated by a one-week wash-out period according to the protocol design reported table 1.
Dogs were fasted overnight prior dosing and food was returned to them four hours after dosing. Blood samples were collected after each dose by venepuncture at predose (within one hour of dosing) and at 0.5, 1, 1.5, 2, 2.5, 3, 4, 5.5, 7, 9 and 24 hours post-dose. Blood samples were collected on heparinized test tubes and immediately centrifuged at 3,000 rpm. Then plasma was drawn off and stored frozen (−20° C.) until analyzed. Plasma concentrations of modafinil were determined by validated high-pressure liquid chromatography according to the method of Moachon G. et al. (J. Chromatog. B 1994; 654: 91). Pharmacokinetic parameters were determined using noncompartimental analysis.

[2] = Relative stability of polymorphic forms; type: physicochemical; details: 20° C. / room temperature
Description: Modafinil form I was identified as the thermodynamic form (at room temperature). Form I is obtained via crystallization, preferably under atmospheric pressure, at room temperature.

[3] = Table 2, male beagle dogs, single oral 30 mg/kg, mean ± SEM, 30 mg/kg
[4] = Table 3, dogs, single oral 30 mg/kg, mean ± SEM, 30 mg/kg

NC(=O)C[S+]([O-])C(c1ccccc1)c1ccccc1 (racemic) [Form I, 2-(benzhydrylsulfinyl) acetamide, reference compound]
concentration at 4 h ([1]; male, beagle, dog, plasma, po, 30 mg/kg, Table 2, male beagle dogs, single oral 30 mg/kg, mean ± SEM, read-out: C4 h (plasma level measured at 4 hours post-dose)): 15400 ± 2560 ng/mL | Cmax ([1]; male, beagle, dog, plasma, po, 30 mg/kg, Table 2, male beagle dogs, single oral 30 mg/kg, mean ± SEM, read-out: Cmax (maximum plasma level of modafinil)): 18600 ± 2300 ng/mL | AUC(0-t) ([1]; male, beagle, dog, plasma, po, 30 mg/kg, Table 2, male beagle dogs, single oral 30 mg/kg, trapezoidal rule 0 to 24 hours post-dose, mean ± SEM, read-out: AUC0-24 h): 165 ± 23.7 µg·h/mL | concentration at 1 h ([1]; male, beagle, dog, plasma, po, 30 mg/kg, Table 3, dogs, single oral 30 mg/kg, mean ± SEM, read-out: C1 h (plasma level at 1 hour post-dose)): 8810 ± 2450 ng/mL | concentration at 1.5 h ([1]; male, beagle, dog, plasma, po, 30 mg/kg, Table 3, dogs, single oral 30 mg/kg, mean ± SEM, read-out: C1.5 h (plasma level at 1.5 hours post-dose)): 12700 ± 2390 ng/mL | concentration at 2 h ([1]; male, beagle, dog, plasma, po, 30 mg/kg, Table 3, dogs, single oral 30 mg/kg, mean ± SEM, read-out: C2 h (plasma level at 2 hours post-dose)): 14200 ± 2230 ng/mL | concentration at 2.5 h ([1]; male, beagle, dog, plasma, po, 30 mg/kg, Table 3, dogs, single oral 30 mg/kg, mean ± SEM, read-out: C2.5 h (plasma level at 2.5 hours post-dose)): 14200 ± 1950 ng/mL | Cmax ([1]; male, beagle, dog, plasma, po, 30 mg/kg, Table 3, dogs, single oral 30 mg/kg, mean ± SEM, read-out: Cmax): 18600 ± 2300 ng/mL | Tmax ([1]; male, beagle, dog, plasma, po, 30 mg/kg, Table 3, dogs, single oral 30 mg/kg, mean, read-out: Tmax (time to reach peak plasma level of modafinil)): 3 h | MRT ([1]; male, beagle, dog, plasma, po, 30 mg/kg, Table 3, male beagle dogs, single oral 30 mg/kg, mean ± SEM, read-out: MRT (mean residence time)): 6.91 ± 0.53 h | stability of the polymorphic form [2]: most stable form

NC(=O)C[S+]([O-])C(c1ccccc1)c1ccccc1 (racemic) [Form IV, 2-(benzhydrylsulfinyl) acetamide]
C4 h (plasma level measured at 4 hours post-dose) [1, 3]: 21230 ± 1880 ng/mL | Cmax (maximum plasma level of modafinil) [1, 3]: 24980 ± 1120 ng/mL | AUC0-24 h ([1]; Table 2, male beagle dogs, single oral 30 mg/kg, trapezoidal rule 0 to 24 hours post-dose, mean ± SEM, 30 mg/kg): 200.69 ± 18.09 µg·h/mL | systemic exposure (Cmax and AUC0-24h) compared with form I ([1]; dogs, equivalent dose 30 mg/kg by oral route): substantially higher

NC(=O)C[S+]([O-])C(c1ccccc1)c1ccccc1 (racemic) [Form V, 2-(benzhydrylsulfinyl) acetamide]
C1 h (plasma level at 1 hour post-dose) [1, 4]: 12410 ± 2070 ng/mL | C1.5 h (plasma level at 1.5 hours post-dose) [1, 4]: 15.31 ± 2.06 µg/mL | C2 h (plasma level at 2 hours post-dose) [1, 4]: 16560 ± 2480 ng/mL | C2.5 h (plasma level at 2.5 hours post-dose) [1, 4]: 16.37 ± 2.38 µg/mL | Cmax [1, 4]: 18720 ± 2090 ng/mL | Tmax (time to reach peak plasma level of modafinil) ([1]; Table 3, dogs, single oral 30 mg/kg, mean, 30 mg/kg): 1.67 h | MRT (mean residence time) ([1]; Table 3, male beagle dogs, single oral 30 mg/kg, mean ± SEM, 30 mg/kg): 6.11 ± 0.36 h | reduction in time needed to reach the concentration Cmax versus reference form I ([1]; dogs, equivalent oral dose 30 mg/kg): ~50% | mean Tmax value relative to that of reference polymorph I ([1]; dogs, oral 30 mg/kg, data of Table 3): about 50%

NC(=O)C[S+]([O-])C(c1ccccc1)c1ccccc1 (stereo not shown) [modafinil form II, 2-(benzhydrylsulfinyl) acetamide]
stability of the polymorphic form [2]: unstable
